Assay results taken from ChEMBL document CHEMBL1144426, “Adenosine kinase inhibitors. 4. 6,8-Disubstituted purine nucleoside derivatives. Synthesis, conformation, and enzyme inhibition” (J Med Chem, 2005).

target: Adenosine kinase (Homo sapiens, UniProt P55263); assay: Inhibitory activity against Human Recombinant Adenosine Kinase
Sequence (P55263 whole entry): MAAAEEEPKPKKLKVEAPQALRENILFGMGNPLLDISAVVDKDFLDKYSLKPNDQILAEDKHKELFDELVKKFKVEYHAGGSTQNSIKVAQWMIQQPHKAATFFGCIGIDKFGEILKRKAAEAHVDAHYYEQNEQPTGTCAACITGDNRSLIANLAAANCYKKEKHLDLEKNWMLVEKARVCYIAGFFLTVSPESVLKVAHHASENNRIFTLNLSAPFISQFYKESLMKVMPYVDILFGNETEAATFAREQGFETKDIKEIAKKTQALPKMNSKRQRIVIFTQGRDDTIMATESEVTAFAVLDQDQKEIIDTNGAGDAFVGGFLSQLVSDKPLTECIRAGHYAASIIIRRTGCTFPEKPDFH

IC50 [nM] | Compound
300 | C=Cc1nc2c(Nc3ccccc3)ncnc2n1[C@@H]1O[C@H](CO)[C@@H](O)[C@H]1O
3600 | OC[C@H]1O[C@@H](n2c(Cl)nc3c(Nc4ccccc4)ncnc32)[C@H](O)[C@@H]1O
90 | OC[C@H]1O[C@@H](n2c(Nc3ccccc3)nc3c(Nc4ccccc4)ncnc32)[C@H](O)[C@@H]1O
7100 | OC[C@H]1O[C@@H](n2c(N3CCc4ccccc43)nc3c(Nc4ccccc4)ncnc32)[C@H](O)[C@@H]1O
6900 | OC[C@H]1O[C@@H](n2c(-c3ccco3)nc3c(Nc4ccccc4)ncnc32)[C@H](O)[C@@H]1O
4500 | OC[C@H]1O[C@@H](n2c(I)nc3c(Nc4ccccc4)ncnc32)[C@H](O)[C@@H]1O
19 | OC[C@H]1O[C@@H](n2c(Nc3ccccc3)nc3c(N4CCc5ccccc54)ncnc32)[C@H](O)[C@@H]1O

The remaining lines, values behind:

Compound | IC50 [nM]
C[C@H]1O[C@@H](n2cc(-c3ccccc3)c3c(N4CCc5ccccc54)ncnc32)[C@H](O)[C@@H]1O | 51
OC[C@H]1O[C@@H](n2c(I)nc3c(N4CCc5ccccc54)ncnc32)[C@H](O)[C@@H]1O | 1000
OC[C@H]1O[C@@H](n2cnc3c(N4CCc5ccccc54)ncnc32)[C@H](O)[C@@H]1O | 500
CSc1nc2c(Nc3ccccc3)ncnc2n1[C@@H]1O[C@H](CO)[C@@H](O)[C@H]1O | 1000
CSc1nc2c(N3CCc4ccccc43)ncnc2n1[C@@H]1O[C@H](CO)[C@@H](O)[C@H]1O | 150
C[C@H]1O[C@@H](n2c(Nc3ccccc3)nc3c(N4CCc5ccccc54)ncnc32)[C@H](O)[C@@H]1O | 200
C#Cc1nc2c(N3CCc4ccccc43)ncnc2n1[C@@H]1O[C@H](CO)[C@@H](O)[C@H]1O | 1000
OC[C@H]1O[C@@H](n2c(Cl)nc3c(N4CCc5ccccc54)ncnc32)[C@H](O)[C@@H]1O | 480
C=Cc1nc2c(N3CCc4ccccc43)ncnc2n1[C@@H]1O[C@H](CO)[C@@H](O)[C@H]1O | 60
OC[C@H]1O[C@@H](n2c(-c3ccco3)nc3c(N4CCc5ccccc54)ncnc32)[C@H](O)[C@@H]1O | 2900
CCc1nc2c(N3CCc4ccccc43)ncnc2n1[C@@H]1O[C@H](CO)[C@@H](O)[C@H]1O | 230
OC[C@H]1O[C@@H](n2c(N3CCc4ccccc43)nc3c(N4CCc5ccccc54)ncnc32)[C@H](O)[C@@H]1O | 2000
